Assay results: paper PMC4257678, “Influence of Sampling on the Determination of Warfarin and Warfarin Alcohols in Oral Fluid” (PLoS ONE, 2014)
Like-named read-outs stand apart in the source and are kept apart here.

Key:
[1] = dissociation constant by HPLC-FLD at different mobile phase pH and methanol content; conditions: for best aqueous pKa: psKa vs Rwt% extrapolated at zero organic content
Experimental: In brief, a standard working solution of WAROHs (1060 ng/mL) was prepared in a PBS buffer (25 mM at different pH value) and then analyzed in triplicate by HPLC-FLD. This approach is based on the different chromatographic behaviour of dissociated and non-dissociated forms of each compound at different pH values of the mobile phase. The pH was lowered in steps of 1 unit and ranged from 7.0 to 3.0. To reach the required pH, different aliquots of H3PO4 (85 wt% in H2O) were added to the mobile phase. The resulting pH was further checked by a pH-meter.
The capacity factor to pH variation ratio (Δk’/ΔpH) of both diastereoisomers was determined with different contents of organic modifiers (Rwt%: 40, 50 and 60) in the methanol-PBS mobile phase. The cosolvent dissociation constant (psKa) value was calculated by equation 1 [27]: [drawing 1] (1) where k’ HA and k’ A are the capacity factors of non-dissociate and dissociate forms, respectively. The pH and k’ values were defined as the corresponding point with a […] slope in the Δk’/ΔpH plot.
The dissociation constant (pKa) of both diastereoisomers of WAROHs was determined at different pH values of the mobile phase by the HPLC-FLD method by varying the organic solvent/water ratio.

[2] = PBS 25 mM pH 7 / 1-octanol, 25°C, 24 hours, n = 3
Experimental: The LogKow value at pH = 7 of both diastereoisomers of WAROHs was determined using the standardized OECD guidelines [25]. Briefly, a standard working solution of WAROHs (1000 ng/mL, C1) was prepared in triplicate in the PBS buffer (25 mM at pH = 7) and then mechanically stirred with an equal volume (4 mL) of 1-octanol at 25°C for 24 hours. The phase separation was obtained at room temperature by centrifuging at 5000 rpm for 5 min. […] The concentration in the organic phase was calculated by subtracting C2 and C3 from C1. LogKow at pH = 7 is expressed as the ratio of the compound concentration in the organic phase to that in the aqueous phase.
The value of LogKow at pH = 7 of both diastereoisomers of WAROHs was determined by the standardized shake-flask method. Octanol was added to a working solution of the WAROHs prepared in PBS at pH 7.0.

[3] = not given; remark: listed apart in the source
[4] = design: method as in PMID 16867718; conditions: T = 25°C; cited from earlier work
[5] = design: method as in PMID 16867718; conditions: at 25°C; cited from earlier work
[6] = 14 patients undergoing WAR therapy

CC(O)CC(c1ccccc1)c1c(O)c2ccccc2oc1=O (centres unmarked) [RR/SS-warfarin alcohols]
best aqueous pKa [1]: 6.55 ± 0.04
LogKow at pH = 7 [2]: 0.83 ± 0.01
concentration in pooled patients oral fluid sample (Figure 2E, extracted PPOFS): 0.6 ng/mL
total plasma concentration (mean ± s.d.) [3, 6]: 30 ± 20 ng/mL
total plasma concentration (range) [3, 6]: 13 to 82 ng/mL

CC(O)CC(c1ccccc1)c1c(O)c2ccccc2oc1=O (centres unmarked) [RS/SR-warfarin alcohols]
best aqueous pKa [1]: 5.73 ± 0.03
LogKow at pH = 7 [2]: 0.93 ± 0.01
concentration in non-stimulated OF samples (mean ± s.d.) [6]: 3 ± 2 ng/mL
concentration in non-stimulated OF samples (range) [6]: 1 to 5 ng/mL
concentration in stimulated OF samples (mean ± s.d.) [6]: 3 ± 2 ng/mL
concentration in stimulated OF samples (range) [6]: 1 to 6 ng/mL
concentration in pooled patients oral fluid sample (Figure 2E, extracted PPOFS): 10.1 ng/mL
total plasma concentration (mean ± s.d.) [3, 6]: 600 ± 300 ng/mL
total plasma concentration (range) [3, 6]: 100 to 1100 ng/mL
unbound plasma concentration (mean ± s.d.) [3, 6]: 5 ± 3 ng/mL
unbound plasma concentration (range) [3, 6]: 1 to 10 ng/mL

CC(=O)CC(c1ccccc1)c1c(O)c2ccccc2oc1=O (stereo not drawn) [WAR, 3-(α-acetonylbenzyl)-4-hydroxycoumarin, reference compound]
pKa [1]: 5.42 ± 0.03
LogKow at pH = 7 [2]: 0.94 ± 0.05
concentration in non-stimulated OF samples (mean ± s.d.) (human, in vivo): 3 ± 2 ng/mL
concentration in non-stimulated OF samples (range) (human, in vivo): 1 to 5 ng/mL
concentration in stimulated OF samples (mean ± s.d.) (human, in vivo): 6 ± 3 ng/mL
concentration in stimulated OF samples (range) (human, in vivo): 1 to 14 ng/mL
concentration in pooled patients oral fluid sample (human, in vivo, po): 9.8 ng/mL
total plasma concentration (mean ± s.d.) ([3]; human, in vivo): 1300 ± 500 ng/mL
total plasma concentration (range) ([3]; human, in vivo): 400 to 2000 ng/mL
unbound plasma concentration (mean ± s.d.) ([3]; human, in vivo): 9 ± 4 ng/mL
unbound plasma concentration (range) ([3]; human, in vivo): 3 to 17 ng/mL
pKa [4]: 5.15 ± 0.04
LogP [5]: 2.82 ± 0.06
